Read-outs that look alike come from different tables or passages of the source.

Experiment [1] addresses T1, c-Met kinase domain recombinant protein (Homo sapiens, UniProt P08581).
T1 construct: 50 μL diluted solution of c-Met kinase domain recombinant protein in reaction buffer was added to initiate the reaction
In words: biochemical. To be noted: read-out: Inhibition rate at 10 μM (%). The protocol: Enzymatic reaction substrate Poly(Glu,Tyr)4:1 was diluted to 20 μg/mL in potassium ion free PBS (10 mM sodium phosphate buffer, 150 mM NaCl, pH7.2-7.4), microplate was coated with this solution at 125 μL per well, and reacted at 37° C. for 12-16 hours. Liquid in wells was discarded. Plate washing: the plate was washed 3 times for 5 minutes each with 200 μL per well of T-PBS (potassium ion free PBS containing 0.1% Tween-20).
Into each well was added 49 μL diluted ATP solution in reaction buffer (50 mM HEPES pH 7.4, 50 mM MgCl2, 0.5 mM MnCl2, 0.2 mM Na3VO4, 1 mM DTT), and 1 μL per well of compound to be tested was added, then 50 μL diluted solution of c-Met kinase domain recombinant protein in reaction buffer was added to initiate the reaction, each test was setup with two wells of ATP free control. Reaction was performed in a 37° C. shaker (100 rpm) for 1 hour. Liquid in the wells was discarded, and the plate was washed three times with T-PBS.
Antibody PY99 was added at 100 μL per well (the antibody was 1:500 diluted in T-PBS containing 5 mg/mL BSA), incubated in a 37° C. shaker for 0.5 hour. Liquid in the wells was discarded, and the plate was washed three times with T-PBS.
Goat anti mouse secondary antibody labeled with horseradish peroxidase was added at 100 μL per well (the antibody was 1:2000 diluted in T-PBS containing 5 mg/mL BSA), incubated in a 37° C. shaker for 0.5 hour. Liquid in the wells was discarded, and the plate was washed three times with T-PBS.
Reaction was terminated by adding 50 μL per well of 2M H2SO4, the plate was read at 490 nm using a VERSAmax microplate reader with tunable wavelength.
(§1) Inhibition rate of the sample was calculated using the following equation: […]

Experiment [2] deals with T1, c-Met kinase domain recombinant protein. Kind of experiment: biochemical. To be noted: for inhibition at 10 µM: read-out: Average inhibition rate at 10 μM (%); for inhibition at 1 µM: read-out: Average inhibition rate at 1 μM (%); for inhibition at 0.1 µM: read-out: Average inhibition rate at 0.1 μM (%). The protocol: Enzymatic reaction substrate Poly(Glu,Tyr)4:1 was diluted to 20 μg/mL in potassium ion free PBS (10 mM sodium phosphate buffer, 150 mM NaCl, pH7.2-7.4), microplate was coated with this solution at 125 μL per well, and reacted at 37° C. for 12-16 hours. Liquid in wells was discarded, then the plate was washed 3 times for 5 minutes each with 200 μL per well of T-PBS (PBS containing 0.1% Tween-20).
Into each well was added 50 μL diluted ATP solution in reaction buffer (50 mM HEPES pH 7.4, 50 mM MgCl2, 0.5 mM MnCl2, 0.2 mM Na3VO4, 1 mM DTT), the final concentration was 5 μM. Test compound was diluted in DMSO to proper concentration, added at 1 μL per well or corresponding level of DMSO (negative control wells), then 49 μL diluted solution of c-Met kinase domain recombinant protein in reaction buffer was added to initiate the reaction, each test was setup with two wells of ATP free control. Reaction was performed in a 37° C. shaker (100 rpm) for 1 hour. The plate was washed three times with T-PBS. Primary antibody PY99 diluted solution was added at 100 μL per well, incubated in a 37° C. shaker for 0.5 hour.
The plate was washed three times with T-PBS. Goat anti mouse secondary antibody labeled with horseradish peroxidase was added at 100 μL per well, incubated in a 37° C. shaker for 0.5 hour. The plate was washed three times with T-PBS. […] Reaction was terminated by adding 50 μL per well of 2M H2SO4, the plate was read at 490 nm using a SPECTRA MAX 190 microplate reader with tunable wavelength.
as §1
IC50 was calculated by fitting the data for a four parameter fit using inhibition curve.

T1 sequence (P08581 1078-1345 limits assumed): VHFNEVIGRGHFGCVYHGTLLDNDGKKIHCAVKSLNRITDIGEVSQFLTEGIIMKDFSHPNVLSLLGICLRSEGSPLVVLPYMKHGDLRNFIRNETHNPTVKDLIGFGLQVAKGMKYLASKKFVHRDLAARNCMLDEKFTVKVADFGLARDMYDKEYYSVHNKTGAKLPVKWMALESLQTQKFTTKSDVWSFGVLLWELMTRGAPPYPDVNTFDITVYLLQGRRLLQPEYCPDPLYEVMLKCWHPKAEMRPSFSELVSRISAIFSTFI

As for `Cn1cc(-c2cnc3ccn(S(=O)(=O)c4ccccc4[N+](=O)[O-])c3c2)cn1` [Compound 1, 1-(2-nitrobenzenesulfonyl)-6-[(1-methyl)-4-pyrazolyl]-1-H-pyrrolo[3,2-b]pyridine], the inhibition at 10 µM in experiment [1] and in experiment [2] was 88.1% throughout.
`Cn1cc(-c2cnc3[nH]nc(S(=O)(=O)c4ccccc4[N+](=O)[O-])c3c2)cn1` [Compound 2, 3-(2-nitrobenzenesulfonyl)-5-[(1-methyl)-4-pyrazolyl]-1-H-pyrazolo[3,4-b]pyridine]: the inhibition at 10 µM in experiment [1] worked out at 92.8%. For the same compound, in experiment [2], the inhibition at 1 µM is 7% and the inhibition at 10 µM stood at 92.8%.
For the compound `Cn1cc(-c2cnc3cnn(S(=O)(=O)c4ccccc4[N+](=O)[O-])c3c2)cn1` [Compound 3, 1-(2-nitrobenzenesulfonyl)-6-[(1-methyl)-4-pyrazolyl]-1-H-pyrazolo[4,3-b]pyridine], the inhibition at 10 µM in experiment [1] and in experiment [2] was 84.6% in each case.
Take `Cn1cc(-c2cnc3cnn(S(=O)(=O)c4ccccc4)c3c2)cn1` [Compound 4, 1-benzenesulfonyl-6-[(1-methyl)-4-pyrazolyl]-1-H-pyrazolo[4,3-b]pyridine]: the inhibition at 10 µM in experiment [1] and in experiment [2] was 44.1% each time.
Turning to `Cn1cc(-c2cnc3cnn(S(=O)(=O)c4cccc(F)c4)c3c2)cn1` [Compound 5, 1-(3-fluorobenzenesulfonyl)-6-[(1-methyl)-4-pyrazolyl]-1-H-pyrazolo[4,3-b]pyridine], in experiment [1], the inhibition at 10 µM came to 57.5%. In experiment [2], the inhibition at 0.1 µM turned out to be 2.1%, the inhibition at 1 µM was 33.8% and the inhibition at 10 µM was 57.5%.
As for `O=S(=O)(c1c[nH]c2ncc(-c3cccc(Cl)c3)cc12)n1ncc2cccnc21` [Example 109, 1-[(3-chlorophenyl)-1-H-pyrrolo[2,3-b]pyridine-3-sulfonyl]-1-H-pyrazolo[3,4-b]pyridine], in experiment [2], the inhibition at 1 µM stood at 40%.
With `O=S(=O)(c1c[nH]c2ncc(-c3ccc(N4CCOCC4)cc3)cc12)n1ncc2cccnc21` [Example 110, 1-[(4-morpholinylphenyl)-1-H-pyrrolo[2,3-b]pyridine-3-sulfonyl]-1-H-pyrazolo[3,4-b]pyridine], the inhibition at 1 µM in experiment [2] was 13.5%.
In the case of `Cn1cc(-c2cnc3cnn(S(=O)(=O)c4cccc5ccccc45)c3c2)cn1` [Example 111, 1-(naphthalene-1-sulfonyl)-6-[(1-methyl)-4-pyrazolyl]-1-H-pyrazolo[4,3-b]pyridine], in experiment [2], the inhibition at 0.1 µM was found to be 28.6% and the inhibition at 1 µM was 63.3%.
For the compound `Cn1cc(-c2cnc3cnn(S(=O)(=O)c4ccc5ccccc5c4)c3c2)cn1` [Example 112, 1-(naphthalene-2-sulfonyl)-6-[(1-methyl)-4-pyrazolyl]-1-H-pyrazolo[4,3-b]pyridine], the inhibition at 1 µM in experiment [2] worked out at 48.8%.
Regarding `Nc1ccc2ncc(S(=O)(=O)n3ncc4ncc(-c5cc(Cl)cc(Cl)c5)cc43)n2c1` [Example 114, 1-[(6-amino-imidazo[1,2-a]pyridine)-3-sulfonyl]-6-(3,5-dichlorophenyl)-1-H-pyrazolo[4,3-b]pyridine], in experiment [2], the inhibition at 1 µM was 30.4%.
With `O=[N+]([O-])c1ccc2ncc(S(=O)(=O)n3ncc4ncc(-c5ccc(C(F)(F)F)cc5)cc43)n2c1` [Example 115, 1-[(6-nitro-imidazo[1,2-a]pyridine)-3-sulfonyl]-6-(4-trifluoromethylphenyl)-1-H-pyrazolo[4,3-b]pyridine], in experiment [2], the inhibition at 0.1 µM amounted to 46.6% and the inhibition at 1 µM turned out to be 95.7%.
Regarding `O=[N+]([O-])c1ccc2ncc(S(=O)(=O)n3ncc4ncc(-c5cc(F)c(F)c(F)c5)cc43)n2c1` [Example 116, 1-[(6-nitro-imidazo[1,2-a]pyridine)-3-sulfonyl]-6-(3,4,5-trifluorophenyl)-1-H-pyrazolo[4,3-b]pyridine], in experiment [2], the concentration for half-maximal inhibition (IC50) was 3.6 ± 0.6 nM, the inhibition at 0.1 µM was determined as 70.8% and the inhibition at 1 µM amounted to 84.6%.
For the compound `Nc1ccc2ncc(S(=O)(=O)n3ncc4ncc(-c5ccccc5)cc43)n2c1` [Example 117, 1-[(6-amino-imidazo[1,2-a]pyridine)-3-sulfonyl]-6-phenyl-1-H-pyrazolo[4,3-b]pyridine], the inhibition at 1 µM in experiment [2] came out at 15.8%.
For `Nc1ccc2ncc(S(=O)(=O)n3ncc4ncc(-c5ccc(F)cc5)cc43)n2c1` [Example 118, 1-[(6-amino-imidazo[1,2-a]pyridine)-3-sulfonyl]-6-(4-fluorophenyl)-1-H-pyrazolo[4,3-b]pyridine], in experiment [2], the inhibition at 0.1 µM amounted to 62.7% and the inhibition at 1 µM was 75.5%.
For the compound `CCCCNc1ccc2ncc(S(=O)(=O)n3ncc4ncc(-c5cnn(C)c5)cc43)n2c1` [Example 119, 1-[(6-n-butylamino-imidazo[1,2-a]pyridine)-3-sulfonyl]-6-[(1-methyl)-4-pyrazolyl]-1-H-pyrazolo[4,3-b]pyridine], in experiment [2], the inhibition at 1 µM was 26.4%.
Still for that read-out and setting: in the case of `CC(=O)Nc1ccc2ncc(S(=O)(=O)n3ncc4ncc(-c5cnn(C)c5)cc43)n2c1` [Example 120, 1-[(6-acetylamino-imidazo[1,2-a]pyridine)-3-sulfonyl]-6-[(1-methyl)-4-pyrazolyl]-1-H-pyrazolo[4,3-b]pyridine] it was 28.7%.
As to `COc1ccc2ncc(S(=O)(=O)n3ncc4ncc(-c5cncc6ccccc56)cc43)n2c1` [Example 122, 1-[(6-methoxy-imidazo[1,2-a]pyridine)-3-sulfonyl]-6-(4-isoquinolinyl)-1-H-pyrazolo[4,3-b]pyridine], in experiment [2], the half-inhibitory concentration (IC50) worked out at 190 ± 32.7 nM, the inhibition at 0.1 µM amounted to 72.9% and the inhibition at 1 µM was 100%.
Regarding `COc1ccc2cc(-c3cnc4cnn(S(=O)(=O)c5cnc6ccc(OC)cn56)c4c3)ccc2c1` [Example 123, 1-[(6-methoxy-imidazo[1,2-a]pyridine)-3-sulfonyl]-6-(6-methoxy-2-naphthyl)-1-H-pyrazolo[4,3-b]pyridine], in experiment [2], the IC50 is 51.5 ± 6 nM, the inhibition at 0.1 µM was 87% and the inhibition at 1 µM came to 99.3%.
Taken in the same sequence, the figures for `COc1ccc2ncc(S(=O)(=O)n3ncc4ncc(-c5cccc(C(F)(F)F)c5)cc43)n2c1` [Example 125, 1-[(6-methoxy-imidazo[1,2-a]pyridine)-3-sulfonyl]-6-(3-trifluoromethylphenyl)-1-H-pyrazolo[4,3-b]pyridine] were 55.2 ± 5.6 nM, 84.5% and 99.3%.
Taken in the same sequence, the figures for `O=S(=O)(c1cnc2ccc(O)cn12)n1ncc2ncc(-c3ccccc3)cc21` [Example 127, 1-[(6-hydroxy-imidazo[1,2-a]pyridine)-3-sulfonyl]-6-phenyl-1H-pyrazolo[4,3-b]pyridine] were 30 ± 3.3 nM, 93.9% and 99%.
As to `CCOC(=O)c1cnc2cnn(S(=O)(=O)c3cnc4ccc(Br)cn34)c2c1` [Example 130, 1-[(6-bromo-imidazo[1,2-a]pyridine)-3-sulfonyl]-6-ethoxycarbonyl-1-H-pyrazolo[4,3-b]pyridine], in experiment [2], the inhibition at 0.1 µM stood at 16.1% and the inhibition at 1 µM amounted to 90.8%.
The matching figures for `O=C(Nc1cnc2cnn(S(=O)(=O)c3cnc4ccc(Br)cn34)c2c1)c1ccccc1` [Example 131, 1-[(6-bromo-imidazo[1,2-a]pyridine)-3-sulfonyl]-6-benzamido-1-H-pyrazolo[4,3-b]pyridine]: 75.1% and 83.6%.
Taken in the same sequence, the figures for `COc1cccc(C(=O)Nc2cnc3cnn(S(=O)(=O)c4cnc5ccc(OC)cn45)c3c2)c1` [Example 134, 1-[(6-methoxy-imidazo[1,2-a]pyridine)-3-sulfonyl]-6-(3-methoxybenzamido)-1-H-pyrazolo[4,3-b]pyridine] were 66.8% and 56.9%.

The values above are taken from patent US9988381B2, “Five-member-heterocycle fused pyridine compounds, method of producing the same, and use thereof” (SHANGHAI INSTITUTE OF MATERIA MEDICA, CHINESE ACADEMY OF …, priority 2013, dated 2018).
